Laboratory results taken from PubChem BioAssay AID248 (DTP/NCI, 2004).
Inconclusive results and toxic doses are left out.

Tested on: L1210 leukemia ip in BDF1 mice, survival T/C
Assay: NCI In Vivo Anticancer Drug Screen. Data for tumor model L1210 Leukemia (intraperitoneal) in B6D2F1 (BDF1) mice
Settings: endpoint: mean survival time, higher = longer survival
How it was run: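 Each compound was tested against a transplantable tumor grown in mice. The endpoint was survival, with treated animals benchmarked against vehicle controls as a simple ratio.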

[1] = dose: 50.0 mg/kg/injection, schedule: Q01DX009 (ip), vehicle: saline with Tween-80
[2] = dose: 100.0 mg/kg/injection, schedule: Q01DX009 (ip), vehicle: saline with Tween-80
[3] = dose: 200.0 mg/kg/injection, schedule: Q01DX009 (ip), vehicle: saline with Tween-80
[4] = dose: 100.0 mg/kg/injection, schedule: Q01DX001 (ip), vehicle: saline
[5] = dose: 200.0 mg/kg/injection, schedule: Q01DX001 (ip), vehicle: saline
[6] = dose: 400.0 mg/kg/injection, schedule: Q01DX001 (ip), vehicle: saline
[7] = dose: 100.0 mg/kg/injection, schedule: Q01DX009 (ip), vehicle: saline
[8] = dose: 100.0 mg/kg/injection, schedule: Q04DX003 (ip), vehicle: saline
[9] = dose: 200.0 mg/kg/injection, schedule: Q01DX009 (ip), vehicle: saline
[10] = dose: 200.0 mg/kg/injection, schedule: Q04DX003 (ip), vehicle: saline
[11] = dose: 400.0 mg/kg/injection, schedule: Q01DX009 (ip), vehicle: saline
[12] = dose: 400.0 mg/kg/injection, schedule: Q04DX003 (ip), vehicle: saline
[13] = dose: 50.0 mg/kg/injection, schedule: Q01DX009 (ip), vehicle: saline
[14] = dose: 100.0 mg/kg/injection, schedule: Q04DX003 (ip), vehicle: saline with Tween-80
[15] = dose: 200.0 mg/kg/injection, schedule: Q04DX003 (ip), vehicle: saline with Tween-80
[16] = dose: 400.0 mg/kg/injection, schedule: Q04DX003 (ip), vehicle: saline with Tween-80
[17] = dose: 100.0 mg/kg/injection, schedule: Q04DX003 (ip), vehicle: Klucel (hydroxypropylcellulose) (HPC)
[18] = dose: 200.0 mg/kg/injection, schedule: Q04DX003 (ip), vehicle: Klucel (hydroxypropylcellulose) (HPC)
[19] = dose: 400.0 mg/kg/injection, schedule: Q04DX003 (ip), vehicle: Klucel (hydroxypropylcellulose) (HPC)
[20] = dose: 100.0 mg/kg/injection, schedule: Q01DX001 (ip), vehicle: other
[21] = dose: 200.0 mg/kg/injection, schedule: Q01DX001 (ip), vehicle: other
[22] = dose: 400.0 mg/kg/injection, schedule: Q01DX001 (ip), vehicle: other

COc1ccc(/C=N/NC(=O)CNC(=O)c2ccc(Cl)c(Cl)c2)cc1OC
T/C [1]: 91 % of control | T/C [2]: 91 % of control | T/C [3]: 102 % of control

CC(=O)OC1C(C)C2C=CC(=O)C2(C)CC2C1OC(=O)C2(O)CO (stereo not given)
T/C (dose: 25.0 mg/kg/injection, schedule: Q04DX002 (ip), vehicle: saline): 116 % of control | T/C (dose: 50.0 mg/kg/injection, schedule: Q04DX002 (ip), vehicle: saline): 113 % of control | T/C (dose: 100.0 mg/kg/injection, schedule: Q04DX002 (ip), vehicle: saline): 95 % of control

CC(O)C(=O)COP(=O)(O)O (stereo not given)
T/C [4]: 96 % of control | T/C [5]: 102 % of control | T/C [6]: 96 % of control

COc1cc([N+](C)(C)C)nc(OC)n1
T/C (dose: 22.0 mg/kg/injection, schedule: Q01DX Z (ip), vehicle: saline): 98 % of control | T/C (dose: 34.0 mg/kg/injection, schedule: Q01DX Z (ip), vehicle: saline): 110 % of control | T/C (dose: 50.0 mg/kg/injection, schedule: Q01DX Z (ip), vehicle: saline): 104 % of control

CCc1c(CNc2ccc(C(=O)NC(CCC(=O)O)C(=O)O)cc2)ccc2nc(N)nc(N)c12 (stereo not given)
T/C (dose: 0.12 mg/kg/injection, schedule: Q01DX003 (ip), vehicle: saline): 89 % of control | T/C (dose: 4.0 mg/kg/injection, schedule: Q01DX009 (ip), vehicle: saline): 88 % of control | T/C (dose: 2.5 micrograms/kg/injection, schedule: Q01DX009 (ip), vehicle: saline): 101 % of control | T/C (dose: 5.0 micrograms/kg/injection, schedule: Q01DX009 (ip), vehicle: saline): 111 % of control | T/C (dose: 10.0 micrograms/kg/injection, schedule: Q01DX009 (ip), vehicle: saline): 113 % of control

c1ccc(COB(OCc2ccccc2)OCc2ccccc2)cc1
T/C [7]: 110 % of control | T/C [8]: 105 % of control | T/C [9]: 104 % of control | T/C [10]: 102 % of control | T/C [11]: 96 % of control | T/C [12]: 96 % of control

COc1cccc(/C=N\NC(=O)CNC(=O)Nc2ccc(Cl)c(Cl)c2)c1OC
T/C [1]: 93 % of control | T/C [2]: 93 % of control | T/C [3]: 86 % of control

CC(=C/c1ccccc1)/C=N/N=C(N)N
T/C (dose: 3.8 mg/kg/injection, schedule: Q01DX Z (ip), vehicle: saline): 97 % of control | T/C (dose: 7.5 mg/kg/injection, schedule: Q01DX Z (ip), vehicle: saline): 94 % of control | T/C (dose: 15.0 mg/kg/injection, schedule: Q01DX Z (ip), vehicle: saline): 90 % of control

C1CCC(OB2OB(OC3CCCCC3)OB(OC3CCCCC3)O2)CC1
T/C (dose: 50.0 mg/kg/injection, schedule: Q04DX003 (ip), vehicle: saline): 93 % of control | T/C [4]: 93 % of control | T/C [7]: 97 % of control | T/C [8]: 98 % of control | T/C [5]: 98 % of control | T/C [9]: 110 % of control | T/C [10]: 103 % of control | T/C [6]: 86 % of control | T/C [11]: 111 % of control

CN(C)S(=O)(=O)c1ccc(NC(=O)OC2CCCCC2)cc1
T/C [4]: 96 % of control | T/C [5]: 91 % of control | T/C [6]: 96 % of control

CC(=O)Nc1cc2c(cc1Br)-c1ccccc1C2O (stereo not given)
T/C (dose: 100.0 mg/kg/injection, schedule: Q01DX001 (ip), vehicle: carboxymethylcellulose (CMC)): 98 % of control | T/C (dose: 110.0 mg/kg/injection, schedule: Q01DX Z (ip), vehicle: other): 98 % of control | T/C (dose: 166.0 mg/kg/injection, schedule: Q01DX Z (ip), vehicle: other): 101 % of control | T/C (dose: 200.0 mg/kg/injection, schedule: Q01DX001 (ip), vehicle: carboxymethylcellulose (CMC)): 97 % of control | T/C (dose: 250.0 mg/kg/injection, schedule: Q01DX Z (ip), vehicle: other): 98 % of control | T/C (dose: 296.0 mg/kg/injection, schedule: Q01DX Z (ip), vehicle: saline): 103 % of control | T/C (dose: 444.0 mg/kg/injection, schedule: Q01DX Z (ip), vehicle: saline): 105 % of control | T/C (dose: 560.0 mg/kg/injection, schedule: Q01DX Z (ip), vehicle: other): 103 % of control | T/C (dose: 666.0 mg/kg/injection, schedule: Q01DX Z (ip), vehicle: saline): 106 % of control

CCOCCOCCOC(C)Oc1cccc(C(=O)OCC)c1 (stereo not given)
T/C (dose: 100.0 mg/kg/injection, schedule: Q04DX002 (ip), vehicle: saline with Tween-80): 103 % of control | T/C (dose: 200.0 mg/kg/injection, schedule: Q04DX002 (ip), vehicle: saline with Tween-80): 103 % of control | T/C (dose: 400.0 mg/kg/injection, schedule: Q04DX002 (ip), vehicle: saline with Tween-80): 100 % of control

COC(=O)C(N)Cc1ccc(O)c(N(CCCl)CCCl)c1 (stereo not given)
T/C (dose: 0.01 mg/kg/injection, schedule: Q01DX009 (ip), vehicle: saline): 116 % of control | T/C (dose: 0.25 mg/kg/injection, schedule: Q01DX009 (ip), vehicle: saline): 205 % of control | T/C (dose: 0.5 mg/kg/injection, schedule: Q01DX009 (ip), vehicle: saline): 204 % of control | T/C (dose: 1.0 mg/kg/injection, schedule: Q01DX009 (ip), vehicle: saline): 194 % of control | T/C (dose: 2.5 mg/kg/injection, schedule: Q01DX001 (ip), vehicle: saline): 116 % of control | T/C (dose: 5.0 mg/kg/injection, schedule: Q01DX001 (ip), vehicle: saline): 168 % of control | T/C (dose: 10.0 mg/kg/injection, schedule: Q01DX001 (ip), vehicle: saline): 213 % of control

COc1ccc(C=C2CCC2)cc1
T/C (dose: 100.0 mg/kg/injection, schedule: Q04DX003 (ip), vehicle: gum acacia): 95 % of control | T/C (dose: 200.0 mg/kg/injection, schedule: Q04DX003 (ip), vehicle: gum acacia): 99 % of control | T/C (dose: 400.0 mg/kg/injection, schedule: Q04DX003 (ip), vehicle: gum acacia): 99 % of control

COc1ccc(OC)c(C(O)C(C)NC(C)(C)C)c1 (stereo not given)
T/C (dose: 50.0 mg/kg/injection, schedule: Q01DX001 (ip), vehicle: saline): 106 % of control | T/C [4]: 97 % of control

O=C1Nc2ccccc2C1=O
T/C [13]: 92 % of control | T/C [7]: 103 % of control | T/C [8]: 99 % of control | T/C [9]: 103 % of control | T/C [10]: 99 % of control | T/C [11]: 96 % of control | T/C [12]: 99 % of control

CC1(C(=O)O)CC1(C)C(=O)O (stereo not given)
T/C [14]: 103 % of control | T/C [15]: 96 % of control | T/C [16]: 92 % of control

CCCCCCCCCCCCNC(=O)Nc1ccc(CC)cc1
T/C (dose: 100.0 mg/kg/injection, schedule: Q01DX009 (ip), vehicle: Klucel (hydroxypropylcellulose) (HPC)): 87 % of control | T/C [17]: 97 % of control | T/C (dose: 200.0 mg/kg/injection, schedule: Q01DX009 (ip), vehicle: Klucel (hydroxypropylcellulose) (HPC)): 94 % of control | T/C [18]: 96 % of control | T/C (dose: 400.0 mg/kg/injection, schedule: Q01DX009 (ip), vehicle: Klucel (hydroxypropylcellulose) (HPC)): 93 % of control | T/C [19]: 101 % of control

CC1(C(N)=O)CCCC2(C)c3ccccc3CCC12 (stereo not given)
T/C [14]: 92 % of control | T/C [15]: 95 % of control | T/C [16]: 94 % of control

CN1CCCN(C)C1c1ccc(Cl)cc1
T/C (dose: 6.25 mg/kg/injection, schedule: Q04DX003 (ip), vehicle: saline): 99 % of control | T/C (dose: 12.5 mg/kg/injection, schedule: Q04DX003 (ip), vehicle: saline): 99 % of control | T/C (dose: 25.0 mg/kg/injection, schedule: Q04DX003 (ip), vehicle: saline): 91 % of control

CCCCCCCCCCCCCCCCCCOCCCCCCCCCCCC
T/C [20]: 97 % of control | T/C [21]: 92 % of control | T/C [22]: 93 % of control

Cc1cccc(SC(=O)Nc2cc([N+](=O)[O-])ccc2C)c1
T/C [17]: 92 % of control | T/C [18]: 98 % of control | T/C [19]: 97 % of control

CCOCC(O)(c1ccc(Cl)cc1)c1ccc(Cl)cc1
T/C [14]: 106 % of control | T/C [15]: 95 % of control | T/C [16]: 102 % of control

C=C(C)C#CC(O)(C(=O)OCC)C1CCCCC1 (stereo not given)
T/C [20]: 98 % of control | T/C [21]: 109 % of control | T/C [22]: 102 % of control

COC1CC2c3ccccc3C1C(C)=[N+]2C (stereo not given)
T/C [13]: 97 % of control | T/C [7]: 101 % of control | T/C [8]: 102 % of control | T/C [9]: 100 % of control | T/C [10]: 97 % of control | T/C [12]: 102 % of control
